# According to patent US7658941B2, “Warming and nonirritating lubricant compositions and method of comparing irritation” (Johnson & Johnson Consumer Companies, Inc., priority 2002, dated 2010):
# Experiments:
# [1] = Generation of warmth by mixing equal quantity with water; type: physicochemical; conditions: for Actual Temperature (° F.) / Rise in Temperature (° F.) (Expected Minus Actual): 20 ml mixed with 20 ml of water for two minutes
# Description: The temperature of the product and that of water were recorded before water was added to the product. After the addition of water the mixture was mixed for two minutes and the actual temperature was recorded. Glycerin, Propylene Glycol and Honey are the ingredients in Composition 1. It is clear from Table 1 that when mixed with water the temperature of the mixture rises by 9.0° F for Glycerin, 13.5° F. for Propylene Glycol, 17.0° F. for Polyethylene Glycol 400 and 12.5° F. for composition Example 1 of this invention.
# Calculated Rise in Temperature: In order to determine the expected rise in temperature from each composition, the percentage of each component in such composition was multiplied by the temperature increase generated by such component alone to obtain its expected contribution to the temperature increase. These values were added together to calculate the total expected temperature rise. These values were then compared with the actual temperature rise generated by each composition. For example, the calculated rise in temperature generated by the “K-Y Warming®”, composition in the table above was found as follows and compared with the actual temperature rise to determine the unexpectedly higher generation of warmth of the composition:
# Compositions 10, 11 and 12 were tested in accordance with the following procedure to determine the extent to which said compositions generate warmth upon mixture with water. Data was generated by mixing 20 ml of each composition with 20 ml of water. The temperature of the composition and that of water were recorded before water was added to the composition After the addition of water the contents were mixed for two minutes and the actual temperature was recorded.
# [2] = test system: epithelial cells derived from human skin; type: cell-based
# Description: The method designated as EpiDerm™ Skin Model assay uses the epithelial cells derived from human skin as target cells and is commercially available from the MatTek Corporation. […] The test materials are applied directly to the epithelial cell culture surface. […] The toxicity of the test material is evaluated on the basis of relative tissue viability vs time. The actual Tissue Viability is determined by NAD(P)H-dependent microsomal enzyme reduction of MTT in control and test article treated cultures. The negative control used in this assay was deionized water and the positive control was Triton X-100. The exposed cell cultures were incubated for 4, 8, 16 and 24 hours and assayed for reduction of MTT. […] Relative irritation in this assay is expressed by the percent survival rate of epiderm cells over a period of 24 hours. Products with higher relative survival rates are less toxic or less irritating while the ones with lower survival rates are more toxic or irritating.
# The data is plotted as % Viable Cells vs the Exposure Time ranging from 4 to 24 hours.
compound,measurement,setting,value
Polysorbate 60,Actual Temperature (° F.),[1],83.1 ° F.
same,Rise in Temperature (° F.) (Expected Minus Actual),[1],10.6 ° F.
OCC(O)CO [Glycerin],Actual Temperature (° F.),[1],79.0 ° F.
same,Rise in Temperature (° F.) (Expected Minus Actual),[1],9.0 ° F.
same,expected contribution of component to the temperature increase,[1]; in K-Y Warming (Composition 1),4.05
CCCCCCCCCCCCCC(=O)OC(C)C [Isopropyl Myristate],Actual Temperature (° F.),[1],75.2 ° F.
same,Rise in Temperature (° F.) (Expected Minus Actual),[1],0.7 ° F.
CC(O)CO (stereo not drawn) [Propylene Glycol],Actual Temperature (° F.),[1],85.2 ° F.
same,Rise in Temperature (° F.) (Expected Minus Actual),[1],13.5 ° F.
same,expected contribution of component to the temperature increase,[1]; in Composition 10,5.13
same,expected contribution of component to the temperature increase,[1]; in K-Y Warming (Composition 1),6.75
Triton X-100,% viable cells,[2],22.4%
